Here are results for one compound from ChEMBL document CHEMBL3244025, “Carbocyclic arabinosyladenine, an adenosine deaminase resistant antiviral agent” (J Med Chem, 1977).

This assay concerns Vaccinia virus. Kind of assay: Antiviral activity against Vaccinia virus Lederle Chorioallantoic infected in human Hep2 cells assessed as inhibition of virus-induced cytopathogenic effect. The class given is functional, Orthopoxvirus vaccinia, HEp-2.

On to `Nc1ncnc2c1ncn2[C@@H]1C[C@H](CO)[C@@H](O)[C@@H]1O` (racemic), for which the MED50 was determined as 9 µg/mL.
